Data on one compound can be found in patent US20150175877A1, “ENVIRONMENTALLY ACCEPTABLE MULTIFUNCTIONAL ADDITIVE” (SCHLUMBERGER TECHNOLOGY CORPORATION, priority 2013, published 2015).

The subject of this assay is bacteria in North Sea location water. Put plainly: Bacteria growth study in water using dipslides. It counts as cell-based. Particulars: 35° C., dipslide; for Bacteria count: two replicated tests. The procedure:
Bacteria Growth Study at 35° C. [95° F.]
Following is the qualitative study of bacteria growth in water using dipslides. A dipslide is used to test the presence of microorganisms in liquids. Dipslides are the fastest and easiest way to measure the microbial activity in liquid-based systems and in this testing it is used to evaluate the performance of Bodoxin AE.

Regarding `OCOCCOCO` [Bodoxin AE, (ethylenedioxy)dimethanol], for the setting “compared with tap or distilled water”, the “Bacteria count in location water when biocide is used (in words)” value is “reduced significantly reaching the same level as tap or distilled water”. Besides, the Bacteria count (biocide conc. 0.50 gpt) is <10^3 (CFU/ml), the Bacteria count (biocide conc. 1.00 gpt) is <10^3 (CFU/ml) and the Bacteria count (biocide conc. 1.50 gpt) was <10^3 (CFU/ml).
